Results: patent US11053204B2, “Pyrimidinyloxy benzene derivatives as herbicides” (FMC Corporation, priority 2015, dated 2021)

Legend:
Format in all cases: in vivo
[1] = test system: Italian ryegrass (Lolium multiflorum); assay: Test A preemergence, visual injury rating; settings: Lolium multiflorum, pre-emergence, 240 h, 0 to 100 scale (0 no effect, 100 complete control), read-out: Ryegrass, Italian plant response rating
Outline: (§1)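 Pre- and postemergence greenhouse screen. Soil: loam + sand. Spray carrier: solvent mixture, non-phytotoxic, with surfactant. Post timing at 1–2 leaves, height 2–10 cm. Readout: visual injury on a 0–100 scale roughly 10 days after application, untreated plants as reference.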

[2] = test system: giant foxtail (Setaria faberii); assay: Test A preemergence, visual injury rating; settings: Setaria faberi, pre-emergence, 240 h, 0 to 100 scale (0 no effect, 100 complete control), read-out: Foxtail, Giant plant response rating
Outline: as §1

[3] = test system: pigweed (Amaranthus retroflexus); assay: Test A preemergence, visual injury rating; settings: Amaranthus retroflexus, pre-emergence, 240 h, 0 to 100 scale (0 no effect, 100 complete control), read-out: Pigweed plant response rating
Outline: as §1

[4] = test system: kochia (Kochia scoparia); assay: Test A preemergence, visual injury rating; settings: Bassia scoparia, pre-emergence, 240 h, 0 to 100 scale (0 no effect, 100 complete control), read-out: Kochia plant response rating
Outline: as §1

[5] = test system: barnyardgrass (Echinochloa crus-galli); assay: Test A preemergence, visual injury rating; settings: Echinochloa crus-galli, pre-emergence, 240 h, 0 to 100 scale (0 no effect, 100 complete control), read-out: Barnyardgrass plant response rating
Outline: as §1

[6] = test system: ragweed (common ragweed, Ambrosia elatior); assay: Test A preemergence, visual injury rating; settings: Ambrosia artemisiifolia, pre-emergence, 240 h, 0 to 100 scale (0 no effect, 100 complete control), read-out: Ragweed plant response rating
Outline: as §1

[7] = test system: galium (catchweed bedstraw, Galium aparine); assay: Test C postemergence, plant response rating; settings: Galium, post-emergence
Outline: (§2)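 After sowing in loam–sand blend or silt loam, pots were sprayed preemergence; separately grown 1- to 4-leaf plants were sprayed postemergence. Following 13 to 15 d under greenhouse conditions, injury was rated visually on a 0 to 100 scale.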

[8] = test system: lambsquarters (Chenopodium album); assay: Test C postemergence, plant response rating; settings: Chenopodium album, post-emergence
Outline: as §2

[9] = test system: chickweed (common chickweed, Stellaria media); assay: Test C postemergence, plant response rating; settings: Stellaria media, post-emergence
Outline: as §2

[10] = test system: blackgrass (Alopecurus myosuroides); assay: Test C postemergence, plant response rating; settings: Alopecurus myosuroides, post-emergence
Outline: as §2

[11] = test system: oat, wild (wild oat Avena fatua); assay: Test C postemergence, plant response rating; settings: Avena fatua, post-emergence
Outline: as §2

[12] = test system: crabgrass, large (large crabgrass, Digitaria sanguinalis); assay: Test C postemergence, plant response rating; settings: Digitaria sanguinalis, post-emergence
Outline: as §2

[13] = test system: nutsedge, yellow (yellow nutsedge, Cyperus esculentus); assay: Test C postemergence, plant response rating; settings: Cyperus, post-emergence
Outline: as §2

[14] = test system: soybean (Glycine max); assay: Test C postemergence, plant response rating; settings: Glycine max, post-emergence
Outline: as §2

[15] = test system: corn (Zea mays); assay: Test C postemergence, plant response rating; settings: Zea mays, post-emergence
Outline: as §2

[16] = test system: foxtail, giant (giant foxtail, Setaria faberii); assay: Test C postemergence, plant response rating; settings: Setaria faberi, post-emergence
Outline: as §2

[17] = test system: ryegrass, Italian (Italian ryegrass, Lolium multiflorum); assay: Test C postemergence, plant response rating; settings: Lolium multiflorum, post-emergence
Outline: as §2

[18] = test system: wheat (winter wheat, Triticum aestivum); assay: Test C postemergence, plant response rating; settings: Triticum aestivum, post-emergence
Outline: as §2

[19] = 62 g ai/ha, scale 0 to 100 (0 no effect, 100 complete control)
[20] = 125 g ai/ha, scale 0 to 100 (0 no effect, 100 complete control)

Structure (SMILES): O=C(OCCC(F)(F)F)c1c(Cl)cccc1Oc1ncc(Cl)cn1 [Compound 15, 3,3,3-trifluoropropyl 2-chloro-6-[(5-chloro-2-pyrimidinyl)oxy]benzoate]
- pest or weed control at 125 g/ha ([1]; 125 g ai/ha): 40%
- pest or weed control at 500 g/ha ([1]; 500 g ai/ha): 90%
- pest or weed control at 125 g/ha ([2]; 125 g ai/ha): 100%
- pest or weed control at 500 g/ha ([2]; 500 g ai/ha): 100%
- pest or weed control at 125 g/ha ([3]; 125 g ai/ha): 100%
- pest or weed control at 500 g/ha ([3]; 500 g ai/ha): 100%
- pest or weed control at 125 g/ha ([4]; 125 g ai/ha): 100%
- pest or weed control at 500 g/ha ([4]; 500 g ai/ha): 100%
- pest or weed control at 125 g/ha ([5]; 125 g ai/ha): 100%
- pest or weed control at 500 g/ha ([5]; 500 g ai/ha): 100%
- pest or weed control at 125 g/ha ([6]; 125 g ai/ha): 0%
- pest or weed control at 500 g/ha ([6]; 500 g ai/ha): 10%
- pest or weed control at 16 g/ha ([7]; 16 g ai/ha, scale 0 to 100): 70%
- pest or weed control at 31 g/ha ([7]; 31 g ai/ha, scale 0 to 100): 60%
- pest or weed control at 62 g/ha [7, 19]: 95%
- pest or weed control at 125 g/ha [7, 20]: 95%
- pest or weed control at 16 g/ha ([8]; 16 g ai/ha, scale 0 to 100): 70%
- pest or weed control at 31 g/ha ([8]; 31 g ai/ha, scale 0 to 100): 75%
- pest or weed control at 62 g/ha [8, 19]: 75%
- pest or weed control at 125 g/ha [8, 20]: 95%
- pest or weed control at 16 g/ha ([9]; 16 g ai/ha, scale 0 to 100): 35%
- pest or weed control at 31 g/ha ([9]; 31 g ai/ha, scale 0 to 100): 80%
- pest or weed control at 62 g/ha [9, 19]: 90%
- pest or weed control at 125 g/ha [9, 20]: 90%
- pest or weed control at 16 g/ha ([10]; 16 g ai/ha, scale 0 to 100): 0%
- pest or weed control at 31 g/ha ([10]; 31 g ai/ha, scale 0 to 100): 5%
- pest or weed control at 62 g/ha [10, 19]: 10%
- pest or weed control at 125 g/ha [10, 20]: 10%
- pest or weed control at 16 g/ha ([11]; 16 g ai/ha, scale 0 to 100): 5%
- pest or weed control at 31 g/ha ([11]; 31 g ai/ha, scale 0 to 100): 5%
- pest or weed control at 62 g/ha [11, 19]: 5%
- pest or weed control at 125 g/ha [11, 20]: 10%
- pest or weed control at 16 g/ha ([12]; 16 g ai/ha, scale 0 to 100): 30%
- pest or weed control at 31 g/ha ([12]; 31 g ai/ha, scale 0 to 100): 20%
- pest or weed control at 62 g/ha [12, 19]: 25%
- pest or weed control at 125 g/ha [12, 20]: 25%
- pest or weed control at 16 g/ha ([13]; 16 g ai/ha, scale 0 to 100): 0%
- pest or weed control at 31 g/ha ([13]; 31 g ai/ha, scale 0 to 100): 0%
- pest or weed control at 62 g/ha [13, 19]: 5%
- pest or weed control at 125 g/ha [13, 20]: 20%
- plant injury at 16 g/ha ([14]; 16 g ai/ha, scale 0 to 100): 45%
- plant injury at 31 g/ha ([14]; 31 g ai/ha, scale 0 to 100): 45%
- plant injury at 62 g/ha [14, 19]: 80%
- plant injury at 125 g/ha [14, 20]: 90%
- Corn plant response rating (crop injury, 0 = no effect, 100 = complete kill) at 16 g/ha ([15]; 16 g ai/ha, scale 0 to 100): 15%
- Corn plant response rating (crop injury, 0 = no effect, 100 = complete kill) at 31 g/ha ([15]; 31 g ai/ha, scale 0 to 100): 10%
- plant injury at 62 g/ha [15, 19]: 20%
- plant injury at 125 g/ha [15, 20]: 20%
- pest or weed control at 16 g/ha ([16]; 16 g ai/ha, scale 0 to 100): 25%
- pest or weed control at 31 g/ha ([16]; 31 g ai/ha, scale 0 to 100): 30%
- pest or weed control at 62 g/ha [16, 19]: 20%
- pest or weed control at 125 g/ha [16, 20]: 35%
- pest or weed control at 16 g/ha ([17]; 16 g ai/ha, scale 0 to 100): 0%
- pest or weed control at 31 g/ha ([17]; 31 g ai/ha, scale 0 to 100): 5%
- pest or weed control at 62 g/ha [17, 19]: 10%
- pest or weed control at 125 g/ha [17, 20]: 5%
- plant injury at 16 g/ha ([18]; 16 g ai/ha, scale 0 to 100): 0%
- plant injury at 31 g/ha ([18]; 31 g ai/ha, scale 0 to 100): 0%
- plant injury at 62 g/ha ([18]; 62 g ai/ha, scale 0 to 100 (0 no effect, 100 complete control), read-out: Wheat plant response rating): 0%
- plant injury at 125 g/ha [18, 20]: 0%
